Measurements reported in paper PMC11773474, “Roles for Prlhr/GPR10 and Npffr2/GPR74 in feeding responses to PrRP” (Molecular Metabolism, 2025).

Tests used:
[1] = Pharmacokinetics: clearance of p52 from the blood of mice; format: in vivo, mouse; conditions: LC-MS, n=6/group
Protocol: Supplemental Figure 2 . Quality analysis, in v itro potency, and clearance from the blood of mice for p52. A Analytical RP-HPLC spectrum for p52 was recorded using an Agilent 1260 Infinity system. B Spectrographic data from the analysis of purified p52 by single quadrupolar LC/MS using a Waters Mass Lynx 3100 platform. C Peptide in vitro potencies determined in CHO cells transfected with mouse GPR10 or GPR74 receptor.
For GPR74 potency was determined for peptide mediated inhibition of forskolin stimulated cAMP accumulation, as described (48). For GPR10 potency was determined in calcium mobilization assay in cells incubated with FLuo- 4AM calcium assay kit and measured on a FLIPR TETRA (Molecular Devices, Sunnyvale, CA). Shown are log(1/EC50) (1/nM) values for cAMP generation via GRP10 and GPR74 for p52, PrRP-31, and NPFF. ND- not detected. D Mice were injected with the indicated doses of p52.
Blood was drawn at the indicated times after dosing and p52 was quantified by LC-MS.
Shown are mean +/- STD; individual measurements are shown, as well; n=6/group. ND - […]
(1 picture or pasted object on this page, not shown here)

[2] = system: GPR147; conditions: cited from earlier work
Description: Thus, PrRP analogs like p52 might act via GPR147 to decrease food intake. It is not clear whether p52 and other PrRP analogs can suppress food intake via GRP10 and/or GPR74 in the absence of GPR147, but it would be interesting to assess this possibility, as well as potential roles for each of these rece ...

Row | p52 detectable in the circulation for at least 4 h ([1]; dose 1.5 mg/kg) | time p52 remained detectable in the circulation ([1]; dose 5 mg/kg) | Molecule | affinity for GPR147 [2]
1 | not | at least 4 h | CCCCCCCCCCCCCCCC(=O)N[C@@H](CO)C(=O)N[C@@H](CCCNC(=N)N)C(=O)N[C@H](C(=O)N[C@@H](Cc1c[nH]cn1)C(=O)N[C@@H](CCCNC(=N)N)C(=O)N[C@@H](Cc1c[nH]cn1)C(=O)N[C@@H](CO)C(=O)N[C@@H](CCCC)C(=O)N[C@@H](CCC(=O)O)C(=O)N[C@H](C(=O)N[C@@H](CCCNC(=N)N)C(=O)N[C@H](C(=O)N1CCC[C@H]1C(=O)N[C@@H](CC(=O)O)C(=O)N[C@H](C(=O)N[C@@H](CC(N)=O)C(=O)N1CCC[C@H]1C(=O)N[C@@H](C)C(=O)N[C@@H](Cc1c[nH]c2ccccc12)C(=O)N[C@@H](Cc1ccc(O)cc1)C(=O)N[C@@H](C)C(=O)N[C@@H](CO)C(=O)N[C@@H](CCCNC(=N)N)C(=O)NCC(=O)N[C@H](C(=O)N[C@@H](CCCNC(=N)N)C(=O)N1CCC[C@H]1C(=O)N[C@H](C(=O)NCC(=O)N[C@@H](CCCNC(=N)N)C(=O)N[C@@H](Cc1ccc([N+](=O)[O-])cc1)C(N)=O)C(C)C)[C@@H](C)CC)[C@@H](C)CC)[C@@H](C)O)[C@@H](C)CC)[C@@H](C)O [p52] | 
2 |  |  | prolactin releasing peptide [PrRP] | measurable (albeit low) affinity
